Measured values from US5001118A, “Method for preventing senescence and increasing bone mass” (priority 1986, dated 1991).

System: ICR type mice
Assay: General inspection of blood, daily oral administration
Type: in vivo, mouse (ICR type)
Design: key: .dwnarw.: Decrease below control; →: No difference from control; .uparw.: Increase above control
Experimental: Solutions obtained by dissolving the present substance, 24R,25-(OH)2 -D3 in a prescribed concentration in triglyceride of a fatty acid of 8 to 10 carbon atoms containing 1% of ethanol were administered respectively, orally, forcedly and daily to three male-groups and three female-groups of ICR type mice 5 weeks old at dosages of 10, 100, and 1,000 μg/kg.day. The results are compared below with respect to the following items with those obtained of the male- and female-groups using only the solvent without the present substance.

C=C1CC[C@H](O)C/C1=C/C=C1\CCC[C@]2(C)[C@@H]([C@H](C)CC[C@@H](O)C(C)(C)O)CC[C@@H]12 [24R,25-(OH)2 -D3]
→: Amount of hemoglobin (female, group IV, 10 μm/kg) | Hematocrit value (female, group IV, 10 μm/kg) | Number of red blood cells (female, group IV, 10 μm/kg) | Number of white blood cells (female, group IV, 10 μm/kg) | Amount of hemoglobin (female, group V, 100 μm/kg) | Hematocrit value (female, group V, 100 μm/kg) | Number of red blood cells (female, group V, 100 μm/kg) | Number of white blood cells (female, group V, 100 μm/kg) | Amount of hemoglobin (female, group VI, 1000 μg/kg) | Hematocrit value (female, group VI, 1000 μg/kg) | Number of red blood cells (female, group VI, 1000 μg/kg) | Number of white blood cells (female, group VI, 1000 μm/kg) | Amount of hemoglobin (male, group I, 10 μm/kg) | Hematocrit value (male, group I, 10 μm/kg) | Number of red blood cells (male, group I, 10 μm/kg) | Number of white blood cells (male, group I, 10 μm/kg) | Amount of hemoglobin (male, group II, 100 μm/kg) | Hematocrit value (male, group II, 100 μm/kg) | Number of red blood cells (male, group II, 100 μm/kg) | Number of white blood cells (male, group II, 100 μm/kg) | Amount of hemoglobin (male, group III, 1000 μg/kg) | Hematocrit value (male, group III, 1000 μg/kg) | Number of red blood cells (male, group III, 1000 μg/kg) | Number of white blood cells (male, group III, 1000 μm/kg)
